Measurements as given in article PMC12132378 (bioRxiv, 2025).

Target: T1, DTX2 (Homo sapiens, UniProt Q86UW9)
T1 sequence (Q86UW9 1-622): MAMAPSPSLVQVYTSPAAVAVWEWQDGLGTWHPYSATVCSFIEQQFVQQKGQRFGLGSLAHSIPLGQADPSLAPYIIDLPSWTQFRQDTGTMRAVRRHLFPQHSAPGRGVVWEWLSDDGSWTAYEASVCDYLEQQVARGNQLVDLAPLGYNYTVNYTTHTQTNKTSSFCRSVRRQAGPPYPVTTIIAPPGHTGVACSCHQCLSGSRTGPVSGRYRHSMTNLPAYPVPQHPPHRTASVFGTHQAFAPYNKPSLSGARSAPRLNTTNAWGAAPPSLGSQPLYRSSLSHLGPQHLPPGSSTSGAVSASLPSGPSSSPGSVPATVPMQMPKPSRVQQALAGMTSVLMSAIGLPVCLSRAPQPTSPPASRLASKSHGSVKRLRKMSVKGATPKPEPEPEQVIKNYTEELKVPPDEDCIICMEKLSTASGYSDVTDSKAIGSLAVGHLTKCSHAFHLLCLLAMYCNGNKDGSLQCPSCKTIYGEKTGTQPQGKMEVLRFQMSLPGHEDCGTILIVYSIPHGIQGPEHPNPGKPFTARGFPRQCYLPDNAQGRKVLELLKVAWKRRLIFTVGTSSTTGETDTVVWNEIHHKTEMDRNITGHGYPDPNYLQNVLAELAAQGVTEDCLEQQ
Assay: ubiquitylation of OP-ADPr, ion exchange and intact mass spectrometry
Assay type: biochemical
Details: co-substrate purified E2~Ub conjugate; pH 7.4, 37 °C, 150 mM NaCl

## C#CCO[C@H]1O[C@H](COP(=O)(O)OP(=O)(O)OC[C@H]2O[C@@H](n3cnc4c(N)ncnc43)[C@H](O)[C@@H]2O)[C@@H](O)[C@H]1O [compound 8, OP-ADPr]
  ubiquitylation of OP-ADPr, ion exchange and intact mass spectrometry: We next coupled Ub to OP-ADPr using DTX2 to generate an ester-linked Ub-OP-ADPr
